Data as given in ChEMBL document CHEMBL1201862, “PubChem BioAssay data set” (2004).
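Method: 48-hour compound exposure of cells in 96-well plates, five concentrations, linear interpolation of endpoints. The concentration for 50% growth inhibition is given as GI50.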 The source made the active and inactive calls. Rule as the data show it: active = GI50 up to about 1.1 µM and inactive = higher.

Assays:
Assay in all cases: NCI-60 cell line screen, 48 h
RXF 631 = test system: RXF 631
DLD-1 = test system: DLD-1
LXFL 529 = test system: LXFL 529
XF498 = test system: XF498
SNB-78 = test system: SNB-78
M19-MEL = test system: M19-MEL
DMS-273 = test system: DMS-273
HOP-18 = test system: HOP-18

Measured: GI50

Cc1nc(C(N)=S)sc1C(=O)/C=C/c1c(O)ccc2ccccc12
inactive: RXF 631 > 100 µM | DLD-1 72.4 µM | LXFL 529 30 µM | XF498 > 100 µM | SNB-78 > 100 µM | M19-MEL 13.8 µM | DMS-273 > 100 µM | HOP-18 > 100 µM

Cn1c(=O)nc2n(-c3cccc(Cl)c3)c3ccccc3nc-2c1=O
inactive: RXF 631 13.5 µM | LXFL 529 18.6 µM | XF498 19.9 µM | SNB-78 23.7 µM | DMS-273 9.55 µM | HOP-18 12.2 µM

NC1=NN(c2ccccc2)C(=O)C1C(=O)C(=O)Nc1cccc(C(F)(F)F)c1 (configuration not stated)
inactive: RXF 631 > 100 µM | DLD-1 > 100 µM | LXFL 529 67.1 µM | XF498 > 100 µM | SNB-78 > 100 µM | M19-MEL > 100 µM | DMS-273 > 100 µM | HOP-18 67.9 µM

CCOc1ccc(NC(=O)C(=O)CC(=O)C2=C(C)Nc3ccccc3S2)cc1
inactive: RXF 631 > 50 µM | DLD-1 > 50 µM | XF498 > 50 µM | M19-MEL > 50 µM | HOP-18 > 50 µM

CNC(=O)N(CCCCC(NC(C)=O)C(=O)NCc1ccccc1)Cc1ccccc1 (configuration not stated)
inactive: RXF 631 > 100 µM | DLD-1 > 100 µM | LXFL 529 > 100 µM | XF498 > 100 µM | SNB-78 > 100 µM | M19-MEL > 100 µM | DMS-273 > 100 µM

CCOC(=O)c1ccc(/N=C\c2ccc(N(CCC#N)CCC#N)cc2)cc1
inactive: RXF 631 > 100 µM | DLD-1 41.7 µM | LXFL 529 20.8 µM | XF498 > 100 µM | SNB-78 > 100 µM | M19-MEL 62.8 µM | DMS-273 35.9 µM

O=S(=O)(/C=C/CS(=O)(=O)c1ccccc1)c1ccccc1
inactive: RXF 631 24.7 µM | DLD-1 23.6 µM | LXFL 529 29.1 µM | XF498 20.7 µM | SNB-78 26.7 µM | M19-MEL 36.1 µM | DMS-273 29.8 µM | HOP-18 > 100 µM

CCCCCCCCCCCCCCCCCCOCC(C[N+]1(C)CCC(O)CC1)OCC (configuration not stated)
inactive: RXF 631 4.93 µM | DLD-1 11.8 µM | LXFL 529 2.84 µM | XF498 13.3 µM | SNB-78 3.18 µM | M19-MEL 3.52 µM | DMS-273 2.28 µM

COc1ccc(/C=C/c2nnc(S)[nH]2)cc1
inactive: RXF 631 > 100 µM | DLD-1 > 100 µM | LXFL 529 > 100 µM | XF498 79.3 µM | SNB-78 > 100 µM | M19-MEL > 100 µM | DMS-273 > 100 µM

CN(Cc1ccccc1)c1nc(=[N+](C)C)ss1
inactive: RXF 631 67.5 µM | DLD-1 > 100 µM | LXFL 529 71.6 µM | XF498 > 100 µM | SNB-78 > 100 µM | M19-MEL 41.9 µM | DMS-273 60.7 µM | HOP-18 > 100 µM

CC1=C(/C(C)=N/NC(=O)c2ccccc2O)C(C)C(/C(C)=N/NC(=O)c2ccccc2O)=C(C)N1
inactive: RXF 631 37.1 µM | DLD-1 27.9 µM | LXFL 529 23.3 µM | XF498 15.1 µM | SNB-78 40.6 µM | M19-MEL 18.7 µM

Cc1cc(OC(=O)c2c(C)cc(OC(=O)c3c(C)cc(O)cc3O)cc2O)cc(O)c1C(=O)O [GYROPHORIC ACID]
inactive: RXF 631 > 100 µM | DLD-1 > 100 µM | LXFL 529 > 100 µM | XF498 > 100 µM | SNB-78 > 100 µM | M19-MEL > 100 µM | DMS-273 > 100 µM

C#CC[N+](C)(CC#C)CC#C
inactive: RXF 631 > 100 µM | DLD-1 > 100 µM | LXFL 529 > 100 µM | XF498 > 100 µM | SNB-78 > 100 µM | M19-MEL > 100 µM | DMS-273 > 100 µM

O=C1CCCC/C1=C/C=C/c1ccccc1
inactive: RXF 631 69.2 µM | DLD-1 46.9 µM | LXFL 529 64.9 µM | XF498 > 100 µM | M19-MEL 50.9 µM | HOP-18 > 100 µM
